Measurements reported in patent US20150355456A1, “ELECTROWETTING FLUIDS” (MERCK PATENT GMBH, priority 2013, published 2015).

Tests used:
[1] = Solubility from absorbance of a filtered over-saturated dye sample; format: physicochemical; conditions: concentration extrapolated via calibration curve and Beer Lambert Law
Method: (§1) a) Dye mixtures using the novel dyes are prepared to obtain neutral black samples that can be used in EWD. b) Solubility is measured by filtering an over-saturated sample of dissolved dye, measuring the resulting absorbance value, and extrapolating the concentration using a calibration curve and Beer Lambert Law (Absorbance=∈cl, where ∈ is the extinction coefficient of the material, calculated from a calibration curve, c is concentration, and l is the path length of the measurement). c) The absorbance is measured using a Hitachi U3310 spectrophotometer with a 5 micron path length under a single pass transmission measurement condition. d) The impact of the dye on the electrical properties is measured by comparing the dielectric constant of a series of formulations with increasing dye content. There is a linear relationship between dye concentration and dielectric constant, the gradient of which is indicative of the polarisability of the dye. This gradient value is denoted as an ‘alpha value’. A low alpha value indicates a smaller change in dielectric constant as dye concentration increases, and is desirable. High alpha values indicate that the dye has a large impact on the dielectric constant of the solvent, which will likely have a negative impact on the behaviour of the fluid in an electrowetting display pixel.

[2] = Alpha value: gradient of dielectric constant against dye concentration (polarisability); format: physicochemical; conditions: gradient of dielectric constant vs dye concentration; low value desirable
Method: as §1

[3] = Extinction coefficient from calibration curve; format: physicochemical; conditions: extinction coefficient calculated from calibration curve

melting point [°C]	Solubility % [1] [%]	Alpha value [2]	εmax [3]	SMILES
79 to 81	0.22			CCCCCCCCCCCCCC1(C)Nc2cccc3c(/N=N/c4ccc(/N=N/c5ccc(CCCC)cc5)c5ccccc45)ccc(c23)N1 (stereo not shown) [Dye 1, 6-((E)-(4-((E)-(4-Butylphenyl)diazenyl)naphthalen-1-yl)diazenyl)-2-methyl-2-tridecyl-2,3-dihydro-1H-perimidine]
	19.53	2.9360	40107	CCCCCCCCCCCCCC1(C)N(CCCCCCCC)c2cccc3c(/N=N/c4ccc(/N=N/c5ccc(CCCC)cc5)c5ccccc45)ccc(c23)N1CCCCCCCC (stereo not shown) [Dye 2, 6-((E)-(4-((E)-(4-butylphenyl)diazenyl)naphthalen-1-yl)diazenyl)-2-methyl-1,3-dioctyl-2-tridecyl-2,3-dihydro-1H-perimidine]
	28.66		38954	CCCCc1ccc(/N=N/c2cc(OCC(CC)CCCC)c(/N=N/c3ccc(N(CC(CC)CCCC)CC(CC)CCCC)cc3C)cc2C)cc1 (stereo not shown) [Dye 14, 4-((E)-(4-((E)-(4-butylphenyl)diazenyl)-2-(2-ethylhexyloxy)-5-methylphenyl)diazenyl)-N,N-bis(2-ethylhexyl)-3-methylaniline]
